Values of other authors as cited in US6608222B2, “Bioactive conjugated linoleic acid glycerides and method of use” (Alpha Food Ingredients, Inc., priority 2000, dated 2003).

Test system: hamsters
Details: feeding studies with hamsters; compared with a composite group of CLA-FFA isomers

CCCCCC/C=C/C=C\CCCCCCCC(=O)O [purified c-9, t-11 CLA-FFA, cis-9, trans-11-octadecadienoic acid]
biological activity: not so biologically active as a composite group of CLA-FFA isomers
